Test results reported in ChEMBL document CHEMBL5465560, “Selectivity Literature for EUbOPEN Chemogenomic Library” (2024).
Blank lines part the entries; values can stand above or below the compound they belong to.

Assays:
[1] = target: Bone morphogenetic protein receptor type-1B (Homo sapiens, UniProt O00238); test: Selectivity interaction (KinomeScan (DiscoverX)) EUB0000666a BMPR1B; details: at 10 µM
[2] = target: 5'-AMP-activated protein kinase catalytic subunit alpha-1 (Homo sapiens, UniProt Q13131); test: Selectivity interaction (KinomeScan (DiscoverX)) EUB0000666a PRKAA1; details: at 10 µM
[3] = target: Dual specificity tyrosine-phosphorylation-regulated kinase 1B (Homo sapiens, UniProt Q9Y463); test: Selectivity interaction (KinomeScan (DiscoverX)) EUB0000607a DYRK1B; details: at 10 µM
[4] = target: T1, cGMP-dependent protein kinase 2 (Homo sapiens) (UniProt Q13237); test: Selectivity interaction (KinomeScan (DiscoverX)) EUB0000607a PRKG2; details: at 10 µM
T1 sequence (whole entry): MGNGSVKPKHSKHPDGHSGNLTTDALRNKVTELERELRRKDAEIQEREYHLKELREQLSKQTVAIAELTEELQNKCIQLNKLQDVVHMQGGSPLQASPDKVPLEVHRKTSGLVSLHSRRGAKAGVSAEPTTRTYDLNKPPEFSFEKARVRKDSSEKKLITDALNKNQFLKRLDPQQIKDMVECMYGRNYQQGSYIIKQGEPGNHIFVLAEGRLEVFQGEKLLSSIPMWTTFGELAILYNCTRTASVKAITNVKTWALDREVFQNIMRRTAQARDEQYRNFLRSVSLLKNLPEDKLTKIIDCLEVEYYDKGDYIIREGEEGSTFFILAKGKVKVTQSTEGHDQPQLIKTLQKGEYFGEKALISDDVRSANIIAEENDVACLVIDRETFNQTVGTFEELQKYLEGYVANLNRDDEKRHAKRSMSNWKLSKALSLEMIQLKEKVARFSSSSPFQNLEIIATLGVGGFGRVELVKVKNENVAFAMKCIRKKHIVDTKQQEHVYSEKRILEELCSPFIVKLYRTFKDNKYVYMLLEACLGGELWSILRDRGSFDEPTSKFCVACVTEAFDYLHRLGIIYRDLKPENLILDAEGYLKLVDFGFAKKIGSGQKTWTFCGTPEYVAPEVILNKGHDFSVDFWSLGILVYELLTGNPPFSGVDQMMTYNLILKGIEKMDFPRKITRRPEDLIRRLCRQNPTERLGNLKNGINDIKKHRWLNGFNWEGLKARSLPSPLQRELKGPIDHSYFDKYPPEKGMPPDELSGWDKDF

[5] = target: 5'-AMP-activated protein kinase catalytic subunit alpha-2 (Homo sapiens) (UniProt P54646); test: Selectivity interaction (ActivX KiNativ screen (kinase selectivity in THP-1 cell lysates)) EUB0000639a PRKAA2; type: subcellular; details: lysate, at 5 µM
[6] = target: T2, Tyrosine-protein kinase TXK (Homo sapiens) (UniProt P42681); test: Selectivity interaction (KinomeScan (DiscoverX)) EUB0000695a TXK; details: at 100 nM
T2 sequence (whole entry): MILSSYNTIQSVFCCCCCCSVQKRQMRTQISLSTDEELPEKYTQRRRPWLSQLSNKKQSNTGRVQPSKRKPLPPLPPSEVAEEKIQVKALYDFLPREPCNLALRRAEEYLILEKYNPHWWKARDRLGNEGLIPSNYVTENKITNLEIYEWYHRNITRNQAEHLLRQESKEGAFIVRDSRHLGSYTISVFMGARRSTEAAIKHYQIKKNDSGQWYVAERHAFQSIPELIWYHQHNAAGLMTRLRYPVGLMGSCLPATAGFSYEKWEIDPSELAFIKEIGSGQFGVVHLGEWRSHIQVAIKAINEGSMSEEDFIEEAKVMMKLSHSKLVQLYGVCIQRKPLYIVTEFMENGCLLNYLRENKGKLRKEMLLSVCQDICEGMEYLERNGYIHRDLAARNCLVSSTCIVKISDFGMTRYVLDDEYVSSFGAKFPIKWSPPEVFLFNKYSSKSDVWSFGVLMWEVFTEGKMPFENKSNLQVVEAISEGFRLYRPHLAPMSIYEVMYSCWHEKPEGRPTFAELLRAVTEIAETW

[7] = target: Proto-oncogene tyrosine-protein kinase Src (Homo sapiens, UniProt P12931); test: Selectivity interaction (KinaseProfiler screening (Millipore)) EUB0000601a SRC; details: at 3 µM
[8] = target: T3, Membrane-associated tyrosine- and threonine-specific cdc2-inhibitory kinase (Homo sapiens) (UniProt Q99640); test: Selectivity interaction (KinomeScan (DiscoverX)) EUB0001079a PKMYT1; details: at 1 µM
T3 sequence (whole entry): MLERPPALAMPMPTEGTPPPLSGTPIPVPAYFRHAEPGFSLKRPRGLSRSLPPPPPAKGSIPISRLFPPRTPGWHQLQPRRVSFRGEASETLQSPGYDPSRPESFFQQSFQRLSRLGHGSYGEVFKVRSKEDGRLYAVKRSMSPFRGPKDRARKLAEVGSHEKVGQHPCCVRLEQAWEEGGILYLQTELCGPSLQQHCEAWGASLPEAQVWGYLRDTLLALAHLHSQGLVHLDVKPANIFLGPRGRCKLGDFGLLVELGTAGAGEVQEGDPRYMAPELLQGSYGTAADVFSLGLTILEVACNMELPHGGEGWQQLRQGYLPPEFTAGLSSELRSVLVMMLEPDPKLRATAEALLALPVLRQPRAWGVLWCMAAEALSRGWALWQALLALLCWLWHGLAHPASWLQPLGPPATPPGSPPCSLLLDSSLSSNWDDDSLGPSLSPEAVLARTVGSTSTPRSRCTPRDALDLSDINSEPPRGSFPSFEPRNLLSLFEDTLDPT

[9] = target: G protein-coupled receptor kinase 4 (Homo sapiens) (UniProt P32298); details: at 10 µM
[10] = target: T4, Dual specificity mitogen-activated protein kinase kinase 6 (Homo sapiens) (UniProt P52564); test: Selectivity interaction (ActivX KiNativ screen (ex vivo kinase selectivity in human PBMCs)) EUB0001619a MAP2K6; type: cell-based; details: PBMC, at 1 µM
T4 sequence (whole entry): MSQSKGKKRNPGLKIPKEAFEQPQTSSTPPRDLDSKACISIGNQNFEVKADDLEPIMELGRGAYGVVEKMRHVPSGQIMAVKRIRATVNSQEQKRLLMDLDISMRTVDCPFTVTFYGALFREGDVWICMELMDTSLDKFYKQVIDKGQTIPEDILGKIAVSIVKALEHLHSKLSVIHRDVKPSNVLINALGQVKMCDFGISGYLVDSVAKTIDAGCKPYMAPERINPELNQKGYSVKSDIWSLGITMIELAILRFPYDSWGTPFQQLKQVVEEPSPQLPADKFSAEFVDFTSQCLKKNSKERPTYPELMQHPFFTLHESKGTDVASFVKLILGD

Sequence of G protein-coupled receptor kinase 4 (Homo sapiens) (P32298 whole entry, looked up): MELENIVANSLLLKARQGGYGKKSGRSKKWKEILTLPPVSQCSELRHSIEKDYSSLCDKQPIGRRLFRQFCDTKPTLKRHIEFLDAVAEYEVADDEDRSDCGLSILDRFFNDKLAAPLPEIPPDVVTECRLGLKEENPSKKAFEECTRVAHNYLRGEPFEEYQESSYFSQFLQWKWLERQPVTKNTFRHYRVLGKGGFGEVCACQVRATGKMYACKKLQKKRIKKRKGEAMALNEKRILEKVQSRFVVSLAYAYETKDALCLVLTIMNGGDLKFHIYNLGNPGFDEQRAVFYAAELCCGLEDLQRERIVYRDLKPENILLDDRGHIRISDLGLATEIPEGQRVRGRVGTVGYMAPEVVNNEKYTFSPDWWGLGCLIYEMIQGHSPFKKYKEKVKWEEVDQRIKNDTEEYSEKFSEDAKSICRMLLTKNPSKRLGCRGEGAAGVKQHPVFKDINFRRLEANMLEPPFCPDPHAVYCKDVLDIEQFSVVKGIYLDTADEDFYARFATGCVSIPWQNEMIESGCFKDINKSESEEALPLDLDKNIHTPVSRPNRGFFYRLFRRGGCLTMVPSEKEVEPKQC
Sequence of Bone morphogenetic protein receptor type-1B (O00238 whole entry): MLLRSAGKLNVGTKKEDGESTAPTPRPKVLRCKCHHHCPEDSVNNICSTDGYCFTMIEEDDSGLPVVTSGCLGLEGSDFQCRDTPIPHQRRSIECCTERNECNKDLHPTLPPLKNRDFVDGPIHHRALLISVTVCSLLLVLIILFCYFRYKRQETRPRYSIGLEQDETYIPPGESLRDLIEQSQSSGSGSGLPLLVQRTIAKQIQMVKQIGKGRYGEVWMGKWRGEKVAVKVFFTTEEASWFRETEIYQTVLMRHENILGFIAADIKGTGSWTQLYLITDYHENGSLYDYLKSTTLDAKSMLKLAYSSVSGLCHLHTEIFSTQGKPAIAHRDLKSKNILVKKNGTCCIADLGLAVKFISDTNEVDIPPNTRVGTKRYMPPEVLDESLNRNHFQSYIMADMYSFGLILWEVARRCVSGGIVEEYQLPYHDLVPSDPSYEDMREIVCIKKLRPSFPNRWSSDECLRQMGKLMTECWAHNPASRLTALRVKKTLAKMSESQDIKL
Sequence of Dual specificity tyrosine-phosphorylation-regulated kinase 1B (Q9Y463 whole entry, looked up): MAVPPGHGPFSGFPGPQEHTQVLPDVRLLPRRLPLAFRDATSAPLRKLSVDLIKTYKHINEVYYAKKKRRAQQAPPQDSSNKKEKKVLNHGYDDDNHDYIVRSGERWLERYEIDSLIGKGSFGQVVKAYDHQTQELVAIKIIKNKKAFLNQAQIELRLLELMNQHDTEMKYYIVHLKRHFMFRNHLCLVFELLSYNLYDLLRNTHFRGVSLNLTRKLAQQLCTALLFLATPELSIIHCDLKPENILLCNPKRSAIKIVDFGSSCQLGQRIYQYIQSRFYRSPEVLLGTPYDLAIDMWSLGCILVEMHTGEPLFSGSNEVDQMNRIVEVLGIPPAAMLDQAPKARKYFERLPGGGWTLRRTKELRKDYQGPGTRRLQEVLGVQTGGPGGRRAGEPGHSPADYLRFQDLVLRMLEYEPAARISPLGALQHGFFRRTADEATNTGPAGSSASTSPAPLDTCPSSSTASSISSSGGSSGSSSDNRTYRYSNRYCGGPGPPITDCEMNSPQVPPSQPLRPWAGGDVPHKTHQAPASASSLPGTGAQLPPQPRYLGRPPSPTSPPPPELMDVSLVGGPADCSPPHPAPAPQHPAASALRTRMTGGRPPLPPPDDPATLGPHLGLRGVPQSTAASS
Sequence of 5'-AMP-activated protein kinase catalytic subunit alpha-1 (Q13131 whole entry, looked up): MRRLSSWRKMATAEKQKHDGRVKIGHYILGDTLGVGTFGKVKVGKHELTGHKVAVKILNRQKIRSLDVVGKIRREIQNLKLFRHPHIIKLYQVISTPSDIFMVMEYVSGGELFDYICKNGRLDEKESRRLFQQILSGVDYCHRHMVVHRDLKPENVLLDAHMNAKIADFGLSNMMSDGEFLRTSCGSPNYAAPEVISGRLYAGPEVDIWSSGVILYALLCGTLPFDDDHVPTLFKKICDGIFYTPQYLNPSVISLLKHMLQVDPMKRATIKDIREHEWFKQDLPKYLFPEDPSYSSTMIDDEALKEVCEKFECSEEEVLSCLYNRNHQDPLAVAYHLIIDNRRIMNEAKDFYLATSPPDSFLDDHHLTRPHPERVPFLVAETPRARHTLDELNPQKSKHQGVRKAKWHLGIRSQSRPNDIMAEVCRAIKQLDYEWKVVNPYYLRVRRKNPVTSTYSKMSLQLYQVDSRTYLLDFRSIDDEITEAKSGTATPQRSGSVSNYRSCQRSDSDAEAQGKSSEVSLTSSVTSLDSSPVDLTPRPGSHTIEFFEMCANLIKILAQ
Sequence of 5'-AMP-activated protein kinase catalytic subunit alpha-2 (Homo sapiens) (P54646 whole entry, looked up): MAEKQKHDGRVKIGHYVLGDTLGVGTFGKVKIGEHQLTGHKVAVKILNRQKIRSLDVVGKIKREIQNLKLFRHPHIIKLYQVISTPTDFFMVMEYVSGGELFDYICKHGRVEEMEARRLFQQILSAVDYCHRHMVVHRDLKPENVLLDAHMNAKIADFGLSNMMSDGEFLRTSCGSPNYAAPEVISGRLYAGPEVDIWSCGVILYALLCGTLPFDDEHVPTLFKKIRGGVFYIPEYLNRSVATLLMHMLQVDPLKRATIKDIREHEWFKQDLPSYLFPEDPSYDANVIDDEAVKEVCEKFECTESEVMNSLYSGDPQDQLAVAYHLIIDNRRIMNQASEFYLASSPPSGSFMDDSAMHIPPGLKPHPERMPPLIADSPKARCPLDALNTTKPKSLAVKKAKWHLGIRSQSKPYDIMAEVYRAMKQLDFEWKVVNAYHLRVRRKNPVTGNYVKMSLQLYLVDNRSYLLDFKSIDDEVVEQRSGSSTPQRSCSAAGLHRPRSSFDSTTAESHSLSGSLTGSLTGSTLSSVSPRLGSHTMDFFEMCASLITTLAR
Sequence of Proto-oncogene tyrosine-protein kinase Src (P12931 2-536 limits assumed): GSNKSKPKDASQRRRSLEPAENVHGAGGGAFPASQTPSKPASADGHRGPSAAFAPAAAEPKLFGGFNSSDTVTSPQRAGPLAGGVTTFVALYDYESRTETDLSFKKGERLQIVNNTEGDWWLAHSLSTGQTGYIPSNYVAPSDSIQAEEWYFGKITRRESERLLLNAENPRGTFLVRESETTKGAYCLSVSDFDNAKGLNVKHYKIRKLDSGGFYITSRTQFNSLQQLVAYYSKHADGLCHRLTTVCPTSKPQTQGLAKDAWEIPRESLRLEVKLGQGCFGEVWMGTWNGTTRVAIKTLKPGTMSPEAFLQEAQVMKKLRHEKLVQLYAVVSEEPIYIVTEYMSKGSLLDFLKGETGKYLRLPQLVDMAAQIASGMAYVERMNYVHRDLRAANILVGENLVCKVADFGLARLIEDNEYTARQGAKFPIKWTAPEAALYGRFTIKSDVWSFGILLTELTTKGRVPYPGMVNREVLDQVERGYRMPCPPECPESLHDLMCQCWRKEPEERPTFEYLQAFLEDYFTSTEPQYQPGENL

Compound: O=C(NOC[C@H](O)CO)c1ccc(F)c(F)c1Nc1ccc(I)cc1F
- % of control [1]: 100%
- % of control [2]: 100%

Compound: CNC(=O)Nc1ccc(-c2nc(N3CC4CCC(C3)O4)c3cnn(C4CCC5(CC4)OCCO5)c3n2)cc1
- % of control [3]: 100%
- % of control [4]: 88%

- % of inhibition [5]: 18.6%
Compound: CC[C@@H]1[C@H](F)C(=O)N[C@@H]1COc1nccc2cc(C(N)=O)c(OC)cc12 [ZIMLOVISERTIB]

Compound: Cc1cc(F)c(C(=O)Nc2cccc(-c3nncn3C(C)C)n2)cc1-n1cnc(C2CC2)c1
- % of control [6]: 98%

- % of inhibition [7]: 43%
Compound: CCc1cc(Nc2nccc(-c3c(-c4ccc(OC)c(C(=O)Nc5c(F)cccc5F)c4)nc4ccccn34)n2)c(OC)cc1N1CCC(N2CCN(S(C)(=O)=O)CC2)CC1

Compound: Nc1cnc(N2CCc3cc(S(=O)(=O)Nc4c(F)cc(Cl)cc4F)cc(N4CCCC4=O)c32)nc1 [TP-020n]
- % of control [8]: 99%

Compound: Cc1cc([C@@H](C)Nc2ccccc2C(=O)O)c2nc(N3CCOCC3)cc(=O)n2c1 [AZD-6482]
- % of control [9]: 90%

Compound: N#Cc1cccc(-c2c[nH]c3ncnc(N4CCOCC4)c23)c1
- % of inhibition [10]: 9%
